According to US4731109A, “Herbicidal 2-haloacetanilides” (Monsanto Company, priority 1982, dated 1988):
Read-outs that look alike come from different tables or passages of the source.

Experiments:
Format in all cases: in vivo
[1] = test system: cotton; experiment: Greenhouse pre-emergence GR15/GR85 selectivity test; conditions: Table XII
Source text: (§1) A good grade of top soil is placed in aluminum pans and compacted to a depth of three-eighths to one-half inch from the top of the pan. On the top of the soil is placed a number of seeds or vegetative propagules of various plant species. The soil required to level fill the pans after seeding or adding vegetative propagules is weighed into a pan. The soil and a known amount of the active ingredient applied in a solvent or as a wettable powder suspension are thoroughly mixed, and used to cover the prepared pans. After treatment, the pans are given an initial overhead irrigation of eater, equivalent to one-fourth inch (0.64 cm) rainfall, then watered by subirrigation as need to give adequate moisture for germination and growth. As an alternative procedure, the overhead irrigation may be omitted. Observations are made about 2-3 weeks after seeding and treatment.
(§2) In the discussion and tables of data below, reference is made to herbicide application rates symbolized as "GR15 " and "GR85 "; these rates are given in kilograms per hectare (kg/ha) which are convertible into pounds per acre (lbs/A) by dividing the kg/ha rate by 1.12.
A further guide to the effectiveness of a chemical as a selective herbicide is the "selectivity factor" ("SF") for a herbicide in given crops and weeds. The selectivity factor is a measure of the relative degree of crop safety and weed injury and is expressed in terms of the GR15 /GR85 ratio, i.e., the GR15 rate for the crop divided by the GR85 rate for the weed, both rates in kg/ha (lb/A). In the tables below, selectivity factors are shown in parenthesis following the GR85 rate for each weed; the symbol "NS" indicates "non-selective". Marginal or undetermined selectivity is indicated by a dash (--).
Additionally, pre-emergence herbicidal data from other tests have established that compounds according to this invention also selectively suppress quackgrass, yellow nutsedge and/or other weeds in one or more of the crops cotton, peanuts, bush beans and/or rape. For example, in Table VI are presented data showing the herbicidal selectivity of the compounds of Examples 1 and 2 against quackgrass in rape and snap beans. Unless otherwise noted; greenhouse tests in Table VI and in other tables below involved herbicide treatments by soil incorporation and an initial overhead irrigation followed by subirrigation as described above.
In one multi-crop test in the greenhouse, the compounds of Examples 1, 9, and 10 were tested against yellow nutsedge in cotton, soybeans, corn and rice; each compound was non-selective with respect to yellow nutsedge in rice. However, markedly high selectivities for yellow nutsedge in cotton, soybeans and corn were shown for each of the compounds in the test; the respective GR15 and GR85 rates for these compounds are shown in Table XII selectivity factors are shown in parenthesis after each crop.

[2] = test system: Barnyardgrass; experiment: Resistance to leaching and resulting herbicidal efficacy; conditions: Echinochloa crus-galli, read-out: Percent Inhibition; for inhibition at 140 g/ha: 0.14 Kg/Ha; for inhibition at 560 g/ha: 0.56 Kg/Ha; for inhibition at 2200 g/ha: 2.2 Kg/Ha
Experimental: Laboratory tests were conducted to determine the resistance of herbicides according to this invention to leaching into the soil and resulting herbicidal efficacy. […] The pots containing the treated soil were subjected to leaching by placing on a turntable which rotated under two nozzle tips of a water container calibrated to deliver one inch (2.5 cm) of water per hour simulating rainfall. Leaching rates were adjusted by varying the amount of time on the turntable. Water was delivered to the soil in the pots and allowed to percolate through the filter paper and drainage holes. The pots were then allowed to sit for three days at ambient room temperature. The treated soil in the pots was then removed, crumbled and placed as a surface layer on top of other pots containing the above soils seeded with barnyardgrass seeds. The pots were then placed on greenhouse benches, sub-irrigated and allowed to grow for 2-3 weeks. Visual ratings of percent growth inhibition compared to control (untreated) pots and fresh weights for barnyardgrass were recorded; the data from the control represents six replications and that for the test compounds three replications; test data are shown in Table XVIII.

[3] = test system: snap beans; experiment: Greenhouse pre-emergence GR15/GR85 selectivity test; conditions: Table VI
Source text: as §1, §2
A further guide to the effectiveness of a chemical as a selective herbicide is the "selectivity factor" ("SF") for a herbicide in given crops and weeds. […]

[4] = test system: pigweed; experiment: Field pre-emergence selectivity test; conditions: Amaranthus retroflexus, 1008 h, 6 weeks, read-out: Percent Inhibition; for inhibition at 560 g/ha: 0.56 Kg/Ha; for inhibition at 1120 g/ha: 1.12 Kg/Ha
Experimental: (§3) The compound of Examples 1 and 2 was also tested in the field to determine its pre-emergence selectivity against foxtail (spp), barnyardgrass, wild proso millet, smartweed, lambsquarters and pigweed in a plurality of crops; the data (representing three replicate runs) are shown in Table VII for both surface application (S.A.) and soil incorporation (PPI, i.e., preplant incorporation) of the herbicide. The seeds were planted in a fine seedbed of silt loam of intermediate moisture. The seeds were planted at a depth of two inches (5.08 cm). First rainfall (0.2"; 0.51 cm) occurred the day following treatment, the second rain (0.25"; […]) two days after treatment; cumulative rainfall 22 days after treatment was 1.8" (4.57 cm). Observations were made 6 weeks after treatment.

[5] = test system: wild proso millet; experiment: Field pre-emergence selectivity test; conditions: 1008 h, 6 weeks, read-out: Percent Inhibition; for inhibition at 560 g/ha: 0.56 Kg/Ha; for inhibition at 1120 g/ha: 1.12 Kg/Ha; for inhibition at 2240 g/ha: 2.24 Kg/Ha; for inhibition at 4480 g/ha: 4.48 Kg/Ha
Experimental: as §3

[6] = test system: soybeans; experiment: Field pre-emergence selectivity test; conditions: Glycine max, 1008 h, 6 weeks, read-out: Percent Inhibition; for inhibition at 560 g/ha: 0.56 Kg/Ha; for inhibition at 1120 g/ha: 1.12 Kg/Ha; for inhibition at 2240 g/ha: 2.24 Kg/Ha; for inhibition at 4480 g/ha: 4.48 Kg/Ha
Experimental: as §3

[7] = Drummer silt clay, rain 1.27 cm
[8] = Drummer silt clay, rain 5.08 cm
[9] = Drummer silt clay, rain 10.16 cm

CCCOCN(C(=O)CCl)c1c(CC)cccc1C(F)(F)F [Example 10, N--(n-propoxymethyl)-2'-trifluoromethyl-6'-ethyl-2-chloroacetanilide]
GR15 [1]: 2.8 Kg/Ha | inhibition at 140 g/ha ([2]; Drummer silt clay, rain 0 cm): 90% | inhibition at 140 g/ha [2, 7]: 85% | inhibition at 140 g/ha [2, 8]: 80% | inhibition at 140 g/ha [2, 9]: 70% | inhibition at 560 g/ha ([2]; Drummer silt clay, rain 0 cm): 99% | inhibition at 560 g/ha [2, 7]: 98% | inhibition at 560 g/ha [2, 8]: 98% | inhibition at 560 g/ha [2, 9]: 98% | inhibition at 2200 g/ha ([2]; Drummer silt clay, rain 0 cm): 100% | inhibition at 2200 g/ha [2, 7]: 100% | inhibition at 2200 g/ha [2, 8]: 99% | inhibition at 2200 g/ha [2, 9]: 98% | inhibition at 140 g/ha ([2]; Ray silt loam, rain 0 cm): 100% | inhibition at 140 g/ha ([2]; Ray silt loam, rain 1.27 cm): 100% | inhibition at 140 g/ha ([2]; Ray silt loam, rain 5.08 cm): 98% | inhibition at 560 g/ha ([2]; Ray silt loam, rain 0 cm): 100% | inhibition at 560 g/ha ([2]; Ray silt loam, rain 1.27 cm): 100% | inhibition at 560 g/ha ([2]; Ray silt loam, rain 5.08 cm): 100% | inhibition at 560 g/ha ([2]; Ray silt loam, rain 10.16 cm): 90% | inhibition at 2200 g/ha ([2]; Ray silt loam, rain 1.27 cm): 100% | inhibition at 2200 g/ha ([2]; Ray silt loam, rain 5.08 cm): 100% | inhibition at 2200 g/ha ([2]; Ray silt loam, rain 10.16 cm): 98% | inhibition at 140 g/ha ([2]; Ray silt loam, rain 10.16 cm): 65%

CC(C)OCN(C(=O)CCl)c1ccccc1C(F)(F)F [Example 2, N--(isopropoxymethyl)-2'-trifluoromethyl-2-chloroacetanilide]
GR15 Rate [3]: 2.2 Kg/Ha | inhibition at 560 g/ha ([4]; P.P.I.): 33% | inhibition at 1120 g/ha ([4]; P.P.I.): 85% | inhibition at 2240 g/ha ([4]; P.P.I., 2.24 Kg/Ha): 85% | inhibition at 4480 g/ha ([4]; P.P.I., 4.48 Kg/Ha): 88% | inhibition at 560 g/ha ([4]; S.A.): 0% | inhibition at 1120 g/ha ([4]; S.A.): 0% | inhibition at 560 g/ha ([5]; P.P.I.): 35% | inhibition at 1120 g/ha ([5]; P.P.I.): 48% | inhibition at 2240 g/ha ([5]; P.P.I.): 68% | inhibition at 4480 g/ha ([5]; P.P.I.): 87% | inhibition at 560 g/ha ([5]; S.A.): 27% | inhibition at 1120 g/ha ([5]; S.A.): 63% | inhibition at 2240 g/ha ([5]; S.A.): 75% | inhibition at 4480 g/ha ([5]; S.A.): 93% | inhibition at 560 g/ha ([6]; P.P.I.): 3% | inhibition at 1120 g/ha ([6]; P.P.I.): 0% | inhibition at 2240 g/ha ([6]; P.P.I.): 13% | inhibition at 4480 g/ha ([6]; P.P.I.): 28% | inhibition at 560 g/ha ([6]; S.A.): 0% | inhibition at 1120 g/ha ([6]; S.A.): 0% | inhibition at 2240 g/ha ([6]; S.A.): 3% | inhibition at 4480 g/ha ([6]; S.A.): 10%
